The source of these data is ChEMBL document CHEMBL1201862, “PubChem BioAssay data set” (2004).

Some test systems named below: RXF 393; OVCAR-5; A549; HT-29; HL-60; DMS-273; SF-268; SK-MEL-28; NCI-H522; M14; NCI-H460; SNB-78; ACHN; DLD-1; IGROV-1; SR; BT-549; MDA-MB-231; MDA-MB-435; T47D.
Common to all, as to assay: NCI anticancer screen, dose series, 48 h

The structures appear in SMILES notation. Where “and” joins values, the source holds several entries; their conditions need not be identical. Equal values may be shown once.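 Assay format: 96-well plates, 48-hour exposure. Here, GI50 denotes the concentration required for 50% inhibition of growth.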 Calls of active or inactive are those of the source. Cut-off read from the data, not from the text of the source: active = GI50 up to about 1.1 µM and inactive = higher.

For the compound `CCc1cc(C)cc2[n+]1CC=C2.[O-][Cl+3]([O-])([O-])[O-]`, the GI50 was > 100 µM (inactive) with RXF 393; 15.5 µM (inactive) with OVCAR-5; 24.6 µM (inactive) with A549; 19.4 µM (inactive) in the assay with HT-29; 0.125 µM (active) in the assay with HL-60; 0.593 µM (active) with DMS-273. Further, the GI50 was 32.5 µM (inactive) in the assay with SF-268; 27.2 µM (inactive) in the assay on SK-MEL-28; 13.1 µM (inactive) with NCI-H522; 22.3 µM (inactive) in the assay with M14; 27.3 µM (inactive) in the assay on NCI-H460; 33.9 µM (inactive) in the assay with SNB-78. Also, the GI50 with ACHN was 10.4 µM (inactive).
In the case of `O=C1[C@H]2ON(c3ccccc3)C(c3ccco3)[C@H]2C(=O)N1c1ccc(Cc2ccc(N3C(=O)[C@@H]4ON(c5ccccc5)C(c5ccco5)[C@@H]4C3=O)cc2)cc1` (stereo not given in full), the GI50 in the assay with DLD-1, with RXF 393, in the assay with IGROV-1, with OVCAR-5, with A549 and with HT-29 was > 100 µM (inactive) in each case. Moreover, the GI50 in the assay with HL-60 is > 100 µM (inactive); with DMS-273, 78.3 µM (inactive); in the assay with SF-268 it was > 100 µM (inactive); with SK-MEL-28 it was > 100 µM (inactive); in the assay on M14, 82.2 µM (inactive); with NCI-H460, > 100 µM (inactive). For the same compound, the GI50 in the assay on SNB-78 and in the assay with ACHN was > 100 µM (inactive) in each case.
On to `O=c1cc(-c2ccc(O)cc2)oc2cc(O)cc(O)c12` [APIGENIN], for which the GI50 with IGROV-1 was 28.6 µM (inactive); with OVCAR-5 it was 30.5 µM (inactive); with A549 it was 42.9 µM (inactive); with HL-60 it was 29.7 µM (inactive); with DMS-273, 18.6 µM (inactive); in the assay with SF-268, 27.5 µM (inactive). For the same compound, the GI50 with SK-MEL-28 is 20.3 µM (inactive); with NCI-H522, 15.8 µM (inactive); with M14, 44.4 µM (inactive); with NCI-H460, 31.4 µM (inactive); with SNB-78 it was 17.5 µM (inactive); in the assay on ACHN, 15.1 µM (inactive). The GI50 in the assay on SR was 33.6 µM (inactive).
As for `Cc1cc(N(CCC#N)CCC#N)ccc1/N=N/c1ccc(C(=O)O)cc1`, the GI50 in the assay on RXF 393, in the assay on IGROV-1, in the assay with OVCAR-5, with A549, with HT-29 and in the assay with DMS-273 was > 100 µM (inactive) each time. In addition, the GI50 with SF-268, with SK-MEL-28, with NCI-H522, in the assay on M14, with SNB-78 and in the assay on ACHN was > 100 µM (inactive) in each case.
As for `O=c1oc2c3ccc4ccccc4c3n(Cc3nc4ccccc4[nH]3)c2c2ccccc12`, the GI50 was 5.73 µM (inactive) in the assay on DLD-1; 9.4 µM (inactive) in the assay with RXF 393; > 29.3 µM (inactive) in the assay with IGROV-1; > 36.2 µM (inactive) in the assay on OVCAR-5; 5.61 µM (inactive) in the assay with A549; 4.48 µM (inactive) with HT-29. Further, the GI50 was 3.7 µM (inactive) with HL-60; 15.6 µM (inactive) in the assay with SF-268; > 26.7 µM (inactive) with SK-MEL-28; 4.42 µM (inactive) in the assay on NCI-H522; 4.71 µM (inactive) in the assay with M14; 0.518 µM (active) in the assay on NCI-H460. Also, the results for the GI50 in the assay on SNB-78, with ACHN and with SR were > 100 µM (inactive), 3.89 µM (inactive) and 0.791 µM (active), respectively.
For the compound `O=CN/C=C/c1ccc(O)c(O)c1`, the GI50 in the assay with DLD-1, in the assay on RXF 393, with IGROV-1, with OVCAR-5, with A549 and in the assay on HT-29 was > 100 µM (inactive) throughout. Further, the GI50 in the assay with HL-60 is 55 µM (inactive); in the assay on DMS-273, > 100 µM (inactive); with SF-268 it was > 100 µM (inactive); in the assay with SK-MEL-28 it was > 100 µM (inactive); in the assay on NCI-H522, 52.1 µM (inactive); with M14, > 100 µM (inactive). For the same compound, the GI50 in the assay on NCI-H460, in the assay on SNB-78 and in the assay on ACHN was > 100 µM (inactive) throughout.
For the compound `CCCN(CCC)C(=O)c1nc(N)nc(-c2ccc(OC)cc2)c1-c1ccc(OC)cc1`, the GI50 in the assay with DLD-1 is > 100 µM (inactive); in the assay with IGROV-1 it was > 100 µM (inactive); in the assay on OVCAR-5, > 100 µM (inactive); with A549, > 100 µM (inactive); with HT-29 it was > 100 µM (inactive); with HL-60, 73.8 µM (inactive). Also, the GI50 was > 100 µM (inactive) with DMS-273; > 100 µM (inactive) with SF-268; > 100 µM (inactive) in the assay on SK-MEL-28; 98.9 µM (inactive) with NCI-H522; > 100 µM (inactive) in the assay with M14; > 100 µM (inactive) in the assay on NCI-H460. The results for the GI50 in the assay with SNB-78 and in the assay on ACHN were 80.5 µM (inactive) and > 100 µM (inactive), respectively.
For the compound `COc1cc(-c2oc3c(OC)c(OC)cc(O)c3c(=O)c2OC)ccc1O` [TERNATIN], the GI50 was 3.7 µM (inactive) in the assay with DLD-1; 6.18 µM (inactive) and 3.87 µM (inactive) with RXF 393; 5.01 µM (inactive) with BT-549; 4.89 µM (inactive) and 4.1 µM (inactive) in the assay on IGROV-1; 34.6 µM (inactive) in the assay with OVCAR-5; 15.2 µM (inactive) with MDA-MB-231. For the same compound, the GI50 was 14.9 µM (inactive) in the assay with A549; > 100 µM (inactive) in the assay on HT-29; 1.24 µM (inactive) with HL-60; 10.6 µM (inactive) with MDA-MB-435; 8.32 µM (inactive) with T47D; 6.49 µM (inactive) with SNB-78.
In the case of `Cc1cc(NS(=O)(=O)c2ccc(NC(=O)c3cccc4c(=O)c5ccccc5[nH]c34)cc2)no1`, the GI50 was 61.4 µM (inactive) with DLD-1; 40.5 µM (inactive) in the assay with IGROV-1; 94.6 µM (inactive) with OVCAR-5; > 100 µM (inactive) in the assay with A549; 43.1 µM (inactive) with HT-29; 30.9 µM (inactive) with HL-60. Moreover, the GI50 in the assay with SF-268 was 30.5 µM (inactive); in the assay with SK-MEL-28, 41.2 µM (inactive); with NCI-H522, 14.2 µM (inactive); in the assay with NCI-H460 it was 93.3 µM (inactive); in the assay with SNB-78 it was 38.7 µM (inactive); in the assay on ACHN it was 65.6 µM (inactive). Moreover, the GI50 in the assay with SR is 28.2 µM (inactive).
Take `CC(=O)Nc1ccc(S(=O)(=O)N/N=C/c2cc(I)cc([N+](=O)[O-])c2O)cc1`: the GI50 with DLD-1 is > 100 µM (inactive); with RXF 393, 21.5 µM (inactive); in the assay with IGROV-1, > 100 µM (inactive); in the assay on OVCAR-5, > 100 µM (inactive); in the assay with A549 it was > 100 µM (inactive); in the assay on HT-29 it was > 100 µM (inactive). For the same compound, the GI50 with HL-60 was 31.5 µM (inactive); in the assay on DMS-273, 62.4 µM (inactive); in the assay on SF-268, 32.9 µM (inactive); with SK-MEL-28, 25.2 µM (inactive); in the assay with M14, 46.6 µM (inactive); in the assay with NCI-H460 it was > 100 µM (inactive). The results for the GI50 with SNB-78 and in the assay on ACHN were 37 µM (inactive) and > 100 µM (inactive), respectively.
